The values that follow are results of earlier work, collected in US7622458B2, “Combination of ET-743 and a 5-fluorouracil pro-drug for cancer treatment” (Pharma Mar, S.A.U., priority 2004, dated 2009).

For data set [1], the system named is human tumor xenografts, including melanoma and ovarian and breast carcinoma. The following applies: xenografts grown in athymic mice.
Data set [2] concerns sarcoma and breast and ovarian carcinoma. The following applies: 1-, 3-, 24-, 72-hour i.v. infusion and 1 hour daily x5 schedules; patients with sarcoma and breast and ovarian carcinoma.

Take `COc1cc2c(cc1O)CCN[C@]21CS[C@@H]2c3c(OC(C)=O)c(C)c4c(c3[C@H](COC1=O)N1[C@@H]2[C@H]2c3c(cc(C)c(OC)c3O)C[C@@H]([C@@H]1O)N2C)OCO4` [ET-743, ecteinascidin 743]: the “Antineoplastic activity against human tumor xenografts” value in data set [1] is recorded as “potent antineoplastic activity”. For the same compound, the “Clinical responses in phase I studies” value in data set [2] is “Promising responses”.
